The experiment has as its system rat 187-2 gene. Put plainly: Expression analysis of the rat 187-2 gene in H9c2 cells by TaqMan PCR upon norepinephrine stimulation. Type of experiment: cell-based. The conditions noted are these: serum-free DMEM, norepinephrine 10 nM or 100 nM, after 4 and 8 hours, corrected on G3PDH, versus absence of norepinephrine. Here is the method: H9c2 cells are a cell strain derived from rat myocardial cells, and were purchased from ATCC. The cells were cultured in DMEM medium containing 10% bovine serum, and the cells were recovered using trypsin, inoculated at a density of 100000 cells/well of a 12-well plate and cultured for 12 hours in DMEM medium containing 10% bovine serum. Thereafter, the medium was exchanged with serum-free DMEM, and 10 nM norepinephrine was added at a concentration of 10 nM or 100 nM to the medium, and after 4 and 8 hours, the amount of the rat 187-2 gene expressed was quantified by TaqMan PCR.
For orientation: Quantitative PCR measures a nucleic acid by following its amplification.

As for `NC[C@H](O)c1ccc(O)c(O)c1` [norepinephrine], the “amount of the rat 187-2 gene expressed (maximum level)” value is “about twice that in the absence of norepinephrine”.

These data come from US20060127890A1, “Novel gene overexpressed in heart and skeletal muscle and use thereof” (priority 2000, published 2006).
